According to patent US20250340565A1, “CD73 INHIBITOR COMPOUNDS” (AdoRx Therapeutics Limited, priority 2022, published 2025):

Key:
[1] = biological target: CD73 activity in U138-MG cells (Homo sapiens (Human), UniProt P21589); assay: U138-MG inhibition assay (inorganic phosphate from AMP, PiColorLock Gold); type: cell-based; details: 100 μM AMP, 30 min pre-incubation, 1 hour at 37° C.
Outline: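 Washed U138-MG cells in HEPES-buffered saline (pH 7.4) preincubated 30 min at 37 °C with inhibitor, then given 100 μM AMP (final) for 1 h at 37 °C. Released phosphate in supernatant read by PiColorLock Gold; no-AMP wells define 100% inhibition. IC50 taken as inflection of sigmoidal curve.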

CD73 in whole blood = CD73 in whole blood (Homo sapiens (Human), UniProt P21589); assay: Whole blood AMP Glo assay; type: cell-based; details: whole blood of healthy volunteers, 10 μM AMP, 30 min pre-incubation, 15 min at 37° C., levamisole 1.5 mM
Description: Blood is drawn from healthy volunteers by venepuncture and anti-coagulated with Lithium Heparin (10 IU/mi). 150 μl of blood is added to U-bottom polypropylene 96-well assay plates pre-filled with 20 μl of compound dilutions prepared in RPMI also containing the Tissue Non-specific Alkaline Phosphatase inhibitor Levamisole (final assay concentration 1.5 mM). Control wells to define uninhibited CD73 contain DMSO in place of compound. Control wells to define complete stabilization of AMP attributable to CD73 contain LY3475070 (CAS: 2375815-63-5) at 30 μM final assay concentration.
Compounds are pre-incubated with whole blood at 37° C. for 30 minutes. Following this, AMP is added in a 30 μl volume for a final assay concentration of 10 μM, mixed, and the plates are incubated for 15 minutes at 37° C. Final DMSO concentration/well is 0.6% and final volume/well is 200 μL. After incubating with AMP, the plates are placed on ice and then centrifuged at 2000 g for 10 minutes at 4° C. Plasma is removed and then diluted 1:10 with pre-chilled HBSS (Ca2+& Mg2+free) and kept on ice.
The stabilized AMP concentration in diluted plasma is measured using AMP-Glo kit (Promega), in parallel with a standard curve of known AMP concentrations, with a final volume of 40 μl in white flat bottom half-well 96-well plates (Corning). Signal is measured by Luminescence. The IC50 values of test compounds are determined as the inflection point of the sigmoidal concentration response curve.

[2] = biological target: human (h)CD73 (amino acids Trp27-Lys547) (Homo sapiens, UniProt P21589); assay: CD73 inhibition assay (Malachite Green phosphate detection); type: biochemical; details: 250 pM hCD73, 12.5 μM AMP, 20 min pre-incubation, absorbance 620 nm
Outline: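 250 pM hCD73 (Trp27-Lys547) preincubated 20 min with compound (1% DMSO) in 25 mM Tris pH 7.5, 5 mM MgCl2, 0.002% Tween20. Reaction with 12.5 μM AMP for 20 min at room temperature; phosphate detected by malachite green at 620 nm. Data normalised to no compound (0%) and 10 μM control compound (100%).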

Chain of CD73 in whole blood (P21589 27-574): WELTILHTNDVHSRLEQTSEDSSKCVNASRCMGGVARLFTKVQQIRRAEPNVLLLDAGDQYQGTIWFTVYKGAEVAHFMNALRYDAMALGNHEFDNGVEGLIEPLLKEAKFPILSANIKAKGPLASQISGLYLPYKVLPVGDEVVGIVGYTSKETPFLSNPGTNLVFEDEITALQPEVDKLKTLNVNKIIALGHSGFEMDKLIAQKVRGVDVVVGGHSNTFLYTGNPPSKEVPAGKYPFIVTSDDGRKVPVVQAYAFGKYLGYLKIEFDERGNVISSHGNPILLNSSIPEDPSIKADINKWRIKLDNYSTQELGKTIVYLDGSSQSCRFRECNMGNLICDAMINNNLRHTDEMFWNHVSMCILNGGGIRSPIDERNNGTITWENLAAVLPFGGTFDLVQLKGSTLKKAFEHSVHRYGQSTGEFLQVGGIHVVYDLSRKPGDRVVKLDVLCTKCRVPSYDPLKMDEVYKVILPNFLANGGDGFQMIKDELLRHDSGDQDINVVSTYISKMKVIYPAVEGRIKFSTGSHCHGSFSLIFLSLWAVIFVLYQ
Chain of CD73 activity in U138-MG cells (P21589 27-574): as above

Structure (SMILES) | IC50 [1] [nM] | IC50 (CD73 in whole blood) [nM] | IC50 [2] [nM]
O=c1[nH]cc(-c2cc3c(N4CC(F)(F)C5(CCCC5)C4)ncnc3o2)c(=O)[nH]1 [Example 19.1, 5-[4-(4,4-Difluoro-2-azaspiro[4.4]nonan-2-yl)furo[2,3-d]pyrimidin-6-yl]-1H-pyrimidine-2,4-dione] | 104 | 1990 | 96.2
O=c1[nH]cc(-c2cc3c(N4CC(F)(F)C5(CC5)C4)ncnc3o2)c(=O)[nH]1 [Example 19.3, 5-[4-(7,7-Difluoro-5-azaspiro[2.4]heptan-5-yl)furo[2,3-d]pyrimidin-6-yl]-1H-pyrimidine-2,4-dione] | 28.3 | 652 | 137
O=c1[nH]cc(-c2cc3c(N4CCC(OCCN5CCC(C(F)(F)F)CC5)C4)ncnc3o2)c(=O)[nH]1 (stereo not drawn) [Example 21, 5-[4-[3-[2-[4-(Trifluoromethyl)-1-piperidyl]ethoxy]pyrrolidine-1-yl]furo[2,3-d]pyrimidin-6-yl]-1H-pyrimidine-2,4-dione] | 70.8 | 40.2 | 100
O=C(OC1CN(c2ncnc3oc(-c4c[nH]c(=O)[nH]c4=O)cc23)CC1(F)F)N1CCOCC1 (stereo not drawn) [Example 22, [1-[6-(2,4-Dioxo-1H-pyrimidin-5-yl)furo[2,3-d]pyrimidin-4-yl]-4,4-difluoro-pyrrolidin-3-yl]morpholine-4-carboxylate] | 84.5 | 65.5 | 136
N#Cc1ccc(OC2CCN(c3ncnc4nn(-c5c[nH]c(=O)[nH]c5=O)cc34)C2)nc1 (stereo not drawn) [Example 24, 6-[1-[2-(2,4-Dioxo-1H-pyrimidin-5-yl)pyrazolo[3,4-d]pyrimidin-4-yl]pyrrolidine-3-yl]oxypyridine-3-carbonitrile] | 11.8 | 1.4 | 35.5
O=c1[nH]cc(-c2cc3c(N4CC(F)(F)C5(CCC5)C4)nccn3n2)c(=O)[nH]1 [Example 25.1, 5-[4-(8,8-Difluoro-6-azaspiro[3.4]octan-6-yl)pyrazolo[1,5-a]pyrazin-2-yl]-1H-pyrimidine-2,4-dione] | 38.3 | 645 | 42.3
CC1(C)CN(c2ncc(F)c3nn(-c4c[nH]c(=O)[nH]c4=O)cc23)CC1(F)F [Example 26, 5-[4-(3,3-Difluoro-4,4-dimethyl-pyrrolidin-1-yl)-7-fluoro-pyrazolo[4,3-c]pyridin-2-yl]-1H-pyrimidine-2,4-dione] | 2.9 | 16 | 55.6
O=c1[nH]cc(-n2cc3c(N4CC(F)(F)C5(CC5)C4)ncc(F)c3n2)c(=O)[nH]1 [Example 26.5, 5-[4-(7,7-difluoro-5-azaspiro[2.4]heptan-5-yl)-7-fluoro-pyrazolo[4,3-c]pyridin-2-yl]-1H-pyrimidine-2,4-dione] | 14 | 254 | 46
CC1(C)CN(c2ncc(C#N)c3nn(-c4c[nH]c(=O)[nH]c4=O)cc23)CC1(F)F [Example 29, 4-(3,3-difluoro-4,4-dimethyl-pyrrolidin-1-yl)-2-(2,4-dioxo-1H-pyrimidin-5-yl)pyrazolo[4,3-c]pyridine-7-carbonitrile] | 8 | 47 | 52

Now from value to compound:

IC50 [1] [nM] | IC50 (CD73 in whole blood) [nM] | IC50 [2] [nM] | Structure (SMILES)
61.9 | 139 | 152 | O=C(OC1CN(c2ncnc3oc(-c4c[nH]c(=O)[nH]c4=O)cc23)CC1(F)F)N1CC2CCC(C1)O2 (stereo not drawn) [Example 22.1, [1-[6-(2,4-Dioxo-1H-pyrimidin-5-yl)furo[2,3-d]pyrimidin-4-yl]-4,4-difluoro-pyrrolidin-3-yl]8-oxa-3-azabicyclo[3.2.1]octane-3-carboxylate]
10.5 | 1.5 | 152 | Cc1nc(N2CC(C)(C)C(F)(F)C2)c2cn(-c3c[nH]c(=O)[nH]c3=O)nc2n1 [Example 23, 5-[4-(3,3-Difluoro-4,4-dimethyl-pyrrolidin-1-yl)-6-methyl-pyrazolo[3,4-d]pyrimidin-2-yl]-1H-pyrimidine-2,4-dione]
38.6 | 155 | 34.2 | CC1(C)CN(c2nccn3nc(-c4c[nH]c(=O)[nH]c4=O)cc23)CC1(F)F [Example 25, 5-[4-(3,3-Difluoro-4,4-dimethyl-pyrrolidin-1-yl)pyrazolo[1,5-a]pyrazin-2-yl]-1H-pyrimidine-2,4-dione]
2.8 | 38 | 16 | CC1(C)CN(c2ncc(Cl)n3nc(-c4c[nH]c(=O)[nH]c4=O)cc23)CC1(F)F [Example 25.8, 5-[7-chloro-4-(3,3-difluoro-4,4-dimethyl-pyrrolidin-1-yl)pyrazolo[1,5-a]pyrazin-2-yl]-1H-pyrimidine-2,4-dione]
22 | 18000 | 58 | CC1(C)CN(c2ncc(C(F)(F)F)n3nc(-c4c[nH]c(=O)[nH]c4=O)cc23)CC1(F)F [Example 25.9, 5-[4-(3,3-difluoro-4,4-dimethyl-pyrrolidin-1-yl)-7-(trifluoromethyl)pyrazolo[1,5-a]pyrazin-2-yl]-1H-pyrimidine-2,4-dione]
5 | 37 | 22.9 | O=c1[nH]cc(-n2cc3c(N4CC(F)(F)C5(CCC5)C4)ncc(F)c3n2)c(=O)[nH]1 [Example 26.1, 5-[4-(8,8-difluoro-6-azaspiro[3.4]octan-6-yl)-7-fluoro-pyrazolo[4,3-c]pyridin-2-yl]-1H-pyrimidine-2,4-dione]
17 | 69 | 68.2 | O=c1[nH]cc(-n2cc3c(N4CCC5(COC5)C4)ncc(F)c3n2)c(=O)[nH]1 [Example 26.4, 5-[7-fluoro-4-(2-oxa-7-azaspiro[3.4]octan-7-yl)pyrazolo[4,3-c]pyridin-2-yl]-1H-pyrimidine-2,4-dione]
20 | 16 | 65 | CC1(C)CN(c2nccc3nn(-c4c[nH]c(=O)[nH]c4=O)cc23)CC1(F)F [Example 27, 5-[4-(3,3-Difluoro-4,4-dimethyl-pyrrolidin-1-yl)pyrazolo[4,3-c]pyridin-2-yl]-1H-pyrimidine-2,4-dione]
3.6 | 20 | 15 | O=c1[nH]cc(-n2cc3c(N4CC(F)(F)C5(CC5)C4)ncc(Cl)c3n2)c(=O)[nH]1 [Example 28.1, 5-[7-chloro-4-(7,7-difluoro-5-azaspiro[2.4]heptan-5-yl)pyrazolo[4,3-c]pyridin-2-yl]-1H-pyrimidine-2,4-dione]
1.9 | 26 | 20 | O=c1[nH]cc(-n2cc3c(N4CC(F)(F)C5(CCC5)C4)ncc(Cl)c3n2)c(=O)[nH]1 [Example 28.2, 5-[7-chloro-4-(8,8-difluoro-6-azaspiro[3.4]octan-6-yl)pyrazolo[4,3-c]pyridin-2-yl]-1H-pyrimidine-2,4-dione]
12 | 20 | 115 | CC1(C)CN(c2ccnc3nn(-c4c[nH]c(=O)[nH]c4=O)cc23)CC1(F)F [Example 30, 5-[4-(3,3-difluoro-4,4-dimethyl-pyrrolidin-1-yl)pyrazolo[3,4-b]pyridine-2-yl]-1H-pyrimidine-2,4-dione]
12.3 | 32 | 20.8 | CC1(C)CN(c2cncc3nn(-c4c[nH]c(=O)[nH]c4=O)cc23)CC1(F)F [Example 31, 5-[4-(3,3-difluoro-4,4-dimethyl-pyrrolidin-1-yl)pyrazolo[3,4-c]pyridine-2-yl]-1H-pyrimidine-2,4-dione]
